Measurements published in BindingDB's records for patent US10428104 (Pfizer Inc., 2019).

Target: Protein arginine N-methyltransferase 5 (Homo sapiens, UniProt O14744)
Assay: PRMT5 assay
Procedure: Following dilution, 1 ul was added to an empty 96-well microtiter plate. PRMT5/MEP50 protein complex was combined with H4(1-21) peptide ([…]) in PRMT5 assay buffer (50 mM Tris pH 8.5, 50 mM NaCl, 5 mM MgCl2, 1 mM EDTA, 1 mM TCEP) and 44 ul was added to the microtiter plate containing compound. S-Adenosyl-L-methionine (SAM) was prepared by combining 3H labelled SAM with unlabelled SAM in PRMT5 assay buffer such that the final SAM concentration was 10 uM and the specific activity was 0.2 uCi/ul. The reaction was initiated by adding 5 ul of SAM stock to the microtiter plate. The final reaction conditions were 10 nM PRMT5/MEP50 complex, 200 nM peptide and 1 uM SAM. Following a 25 minute incubation at room temperature, the reaction was stopped with the addition of 100 uL of 20% TCA. The 3H-peptide product was captured using a 96-well filter plate (MSIPN4B, Millipore) and washed 5 times with PBS buffer. Scintillation fluid (100 ul) was added to the dried filter plate and counted in a liquid scintillation counter. IC50 values were determined by fitting the data to the standard 4-parameter dose response equation using Pfizer proprietary software.

Chain of Protein arginine N-methyltransferase 5 (O14744 whole entry): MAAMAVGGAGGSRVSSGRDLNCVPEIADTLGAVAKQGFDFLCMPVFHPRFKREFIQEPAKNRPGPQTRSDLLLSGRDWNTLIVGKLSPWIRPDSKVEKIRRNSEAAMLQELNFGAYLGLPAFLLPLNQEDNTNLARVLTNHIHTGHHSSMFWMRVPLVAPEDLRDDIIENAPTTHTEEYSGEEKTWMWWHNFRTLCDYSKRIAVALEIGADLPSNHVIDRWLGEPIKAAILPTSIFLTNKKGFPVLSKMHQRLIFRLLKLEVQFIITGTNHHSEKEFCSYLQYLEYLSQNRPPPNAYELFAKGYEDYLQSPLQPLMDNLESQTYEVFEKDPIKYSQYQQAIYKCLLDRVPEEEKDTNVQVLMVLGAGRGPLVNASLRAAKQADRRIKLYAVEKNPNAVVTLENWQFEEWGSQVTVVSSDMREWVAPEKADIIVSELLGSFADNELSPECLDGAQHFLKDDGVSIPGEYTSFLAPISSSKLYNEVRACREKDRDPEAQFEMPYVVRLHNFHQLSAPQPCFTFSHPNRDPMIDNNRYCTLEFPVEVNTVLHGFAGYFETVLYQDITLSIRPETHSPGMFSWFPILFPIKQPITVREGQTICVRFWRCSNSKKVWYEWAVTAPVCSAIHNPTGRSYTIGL

Structure (SMILES)	IC50 [nM]
Cc1ncnc2c1ccn2[C@@H]1O[C@H]([C@H](O)c2cnn(C)c2)[C@@H](O)[C@H]1O [US10428104, Example 50]	50
Cc1ncnc2c1ccn2[C@@H]1O[C@H]([C@@H](O)c2cnn(C)c2)[C@@H](O)[C@H]1O [US10428104, Example 51]	14700
Cc1ncnc2c1ccn2[C@@H]1O[C@H]([C@H](O)c2cccc3cc[nH]c23)[C@@H](O)[C@H]1O [US10428104, Example 82]	150
